Data: publication PMC7767178 (International Journal of Molecular Sciences, 2020)
In brackets after ≈: the same amount, converted by molar mass. Several values for one entry are separate records, joined by “and”; a condition that tells them apart may be missing. Equal values may be shown once. Read-outs that look alike come from different tables or passages of the source.

Experiments:
[1] = in vitro; details: mouse, 25% mouse serum
[2] = test system: S. hyicus 437-2; assay type: cell-based
[3] = test system: Salmonella typhimurium ATCC14028; assay type: cell-based
[4] = test system: Aeromonas veronii ACCC61732; details: Aeromonas veronii ACCC61732 (MDR); broth dilution, 37 °C, 16–18 h, three experiments
Procedure: (§1) Briefly, the tested strains including Gram-negative bacteria, Gram-positive bacteria, and fungi were cultured to the logarithmic growth phase, diluted to 10^5 CFU/mL, and added into 96-well plates (90 μL/well). Two-fold serial dilutions of peptides or antibiotics dissolved in PBS were added to each well (10 μL/well). […] All experiments were repeated three times.

[5] = test system: Pseudomonas aeruginosa CICC21630
Procedure: as §1

[6] = test system: A. veronii CL0901
Procedure: as §1

[7] = test system: S. aureus ATCC25923
Procedure: as §1

[8] = test system: S. aureus ATCC546
Procedure: as §1

[9] = test system: S. hyicus NCTC10350
Procedure: as §1

[10] = test system: A. veronii ACCC61732; test: Outer membrane permeabilization, NPN assay; assay type: cell-based; details: NPN fluorescence, 1×–4× MIC
Procedure: The outer membrane permeabilization abilities of peptides were determined using the fluorescent NPN assay. Mid-log phase A. veronii ACCC61732 was collected by centrifugation, washed twice, and then suspended in N-2-hydroxyethylpiperazine-n-2-ethane sulfonic acid (HEPES) buffer (pH 7.4) to an OD600nm = 0.4. […] Fluorescence intensity was recorded until no further increase with a microplate reader (excitation/emission, 328/438 nm).

[11] = test system: A. veronii ACCC61732; test: Mouse peritonitis model, bacterial translocation to organs; assay type: in vivo, ICR mice; details: 5 μmol/kg, 24 h post-treatment, colony counting
Procedure: (§2) Sera and organs (livers, kidneys, spleens, and lungs) were collected from the mice at 24 h post-treatment. The organs were homogenized in sterile PBS to evaluate bacterial translocation by colony counting. The levels of cytokines (TNF-α, IL-1β, IL-6, and IL-10) in sera were detected using the ELISA kits.

[12] = test system: A. veronii ACCC61732 biofilms; test: Mouse model of catheter-associated biofilm infection, bacteria in catheter; assay type: in vivo, ICR mice; details: 5 μmol/kg peptide or CIP 24 h after catheter implantation, catheters collected after seven days, six mice per group
Procedure: Briefly, the catheter was cut into 1 cm segments; each piece was sterilized with 70% ethanol and then dried by air. Bacterial biofilms were developed on the catheter by placing individual segments into tubes containing 1.0 mL of a cell suspension (1 × 10^8 CFU/mL) in TSB. After incubation for 24 h at 37 °C, colonized catheters were recovered aseptically and rinsed with PBS to remove unbound bacteria. ICR female mice (20 ± 5 g) were anesthetized with isoflurane; the flanks were shaved and the skin was cleansed with alcohol. […] The incision was then covered with intact skin and closed with surgical suture line and the skin was disinfected. […] The untreated mice were used as the negative control and the mice with sterile catheter were used as the blank control. The mice were anesthetized and sacrificed after seven days. The catheters in the back of the mice were collected and thoroughly shaken in sterile PBS.

[13] = test system: A. veronii ACCC61732 genomic DNA; test: CD spectra of genomic DNA with peptides; assay type: binding; details: mass ratios 2.5 and 10.0, 10 min, room temperature
Procedure: CD spectra were performed to examine the secondary structure of genomic DNA from A. veronii ACCC61732 after incubation with peptides. […] The mixtures were loaded into a cuvette of 1.0-mm path length and scanned from 190 to 330 nm at 25 °C using a Pistar π-180 CD spectrometer (Applied Photophysics Ltd., Surry, UK).

[14] = test system: mouse erythrocytes; test: Hemolysis; assay type: cell-based; details: 256 μg/mL; 8% mouse erythrocyte suspension, 37 °C, 1 h, absorbance 540 nm
Procedure: To determine the hemolysis of peptides, eyeball blood was collected from 6-week-old SPF ICR mice. The blood was centrifuged at 4 °C for 10 min (1500 rpm), washed three times with 0.9% physiological saline, and diluted to 8% suspension. […] Red blood cell suspensions and peptide solutions (100 μL) were mixed in 96-well plates, centrifuged at 4 °C for 5 min (1500 rpm), and incubated at 37 °C for 1 h. The supernatant was added into a 96-well plate and the UV absorbance was measured at 540 nm using a microplate reader. Physiological saline and 0.1% Triton X-100 were used as 0% and 100% hemolytic controls, respectively. The hemolytic ratio was calculated as follows: Hemolysis (%) = [(Abspeptide − Abssaline)/(Abs0.1%Triton X-100 − Abssaline)] × 100% [38].

[15] = test system: trypsin
[16] = test system: A. veronii ACCC61732; test: Organ injury in peritonitis model, histology; assay type: in vivo, mice; details: peptides 5 μmol/kg, CIP 1 μmol/kg
Procedure: Livers, kidneys, spleens, and lungs were removed from mice at 24 h and five days post treatment to evaluate the organ injury. After washing with PBS, the organs were fixed in 4% paraform-aldehyde for 24 h at 4 °C, dehydrated by a graded series of ethanol (75‒95%), and infiltrated with xylene. The organs were then embedded in paraffin wax, sectioned, and stained with hematoxylin and eosin. Finally, the tissue samples were fixed and observed by the light microscope. The CIP-treated mice served as the positive control and the PBS group served as the negative control.

[17] = test system: IL-10; test: Serum cytokine, ELISA, peritonitis model; assay type: in vivo; details: 5 μmol/kg, 24 h after treatment, range over mice
Procedure: as §2

[18] = test system: IL-1β; test: Serum cytokine, ELISA, peritonitis model; assay type: in vivo; details: 5 μmol/kg, 24 h after treatment, range over mice
Procedure: as §2

[19] = test system: IL-6; test: Serum cytokine, ELISA, peritonitis model; assay type: in vivo; details: 5 μmol/kg, 24 h after treatment, range over mice
Procedure: as §2

[20] = test system: TNF-α; test: Serum cytokine, ELISA, peritonitis model; assay type: in vivo; details: 5 μmol/kg, 24 h after treatment, range over mice
Procedure: as §2

[21] = S. hyicus 437-2 (clinical isolate, pig farm), broth dilution, 37 °C, 16–18 h, three experiments
[22] = Salmonella typhimurium ATCC14028, broth dilution, 37 °C, 16–18 h, three experiments
[23] = Pseudomonas aeruginosa CICC21630, broth dilution, 37 °C, 16–18 h, three experiments
[24] = A. veronii CL0901, broth dilution, 37 °C, 16–18 h, three experiments
[25] = S. aureus ATCC25923, broth dilution, 37 °C, 16–18 h, three experiments
[26] = S. aureus ATCC546, broth dilution, 37 °C, 16–18 h, three experiments
[27] = S. hyicus NCTC10350, broth dilution, 37 °C, 16–18 h, three experiments

SMILES | remaining at 2 h [1] | remaining at 4.5 h [1] | MIC [2] | MIC [2, 21] | MIC [3, 22] | MIC [4] | MIC ([5]; CICC21630) | MIC [5, 23] | MIC [6] | MIC [6, 24] | MIC ([7]; ATCC25923) | MIC [7, 25] | MIC ([8]; ATCC546) | MIC [8, 26] | MIC ([9]; NCTC10350) | MIC [9, 27] | reduction of bacteria in kidneys [11] | reduction of bacteria in livers [11] | reduction of bacteria in lungs [11] | reduction of bacteria in spleens [11] | other results
CC(C)[C@H]1NC(=O)CNC(=O)[C@@H](CC(N)=O)NC(=O)[C@@H](CCCNC(=N)N)NC(=O)[C@@H](Cc2ccc(O)cc2)NC(=O)[C@@H](C(C)C)NC(=O)[C@H](NC(=O)[C@H](NC(=O)[C@@H](CC(N)=O)NC(=O)[C@@H](Cc2c[nH]c3ccccc23)NC(=O)[C@@H](C)NC(=O)[C@@H](Cc2ccccc2)NC(=O)CN)C(C)C)CSSC[C@H](C(=O)N[C@H](Cc2c[nH]cn2)C(=O)N[C@H](CCCNC(=N)N)C(=O)N[C@H](CCCNC(=N)N)C(=O)N[C@H](C)C(=O)N[C@H](CC(N)=O)C(N)=O)NC(=O)[C@@H](C(C)C)NC(=O)[C@@H](CCCNC(=N)N)NC1=O [DN6NH2] | 92.7% | 78.4% | 3.23 µM | 8 µg/mL | 8 µg/mL | 4 μg/mL and 1.62 μM | 3.23 µM | 8 µg/mL | 12.93 µM | 32 µg/mL | 3.23 µM | 8 µg/mL | 6.46 µM | 16 µg/mL | 3.23 µM | 8 µg/mL | 80.10% | 89.65% | 81.61% | 70.38% | MIC ([3]; ATCC14028): 3.23 µM; ability to penetrate the outer membrane [10]: higher ability to penetrate the outer membrane than N6NH2; decrease of bacterial cells in the catheter [12]: 71.55%; effect on CD spectrum of genomic DNA [13]: elliptic intensity of the positive band declined; hemolysis [14]: 1.46%; structure after trypsin treatment, MS analysis [15]: not affected by trypsin; effect on injury of liver, spleen, kidney and lung [16]: remarkably alleviated the injury of the liver and spleen; serum level of IL-10 [17]: 15.94 to 25.46 pg/mL; serum level of IL-1β [18]: 8.17 to 25.94 pg/mL; serum level of IL-6 [19]: 104.48 to 115.43 pg/mL; serum level of TNF-α [20]: 40.02 to 66.20 pg/mL
CC(C)[C@@H]1NC(=O)CNC(=O)[C@H](CC(N)=O)NC(=O)[C@H](CCCNC(=N)N)NC(=O)[C@H](Cc2ccc(O)cc2)NC(=O)[C@H](C(C)C)NC(=O)[C@@H](NC(=O)[C@@H](NC(=O)[C@H](CC(N)=O)NC(=O)[C@H](Cc2c[nH]c3ccccc23)NC(=O)[C@H](C)NC(=O)[C@H](Cc2ccccc2)NC(=O)CN)C(C)C)CSSC[C@@H](C(=O)N[C@@H](Cc2cnc[nH]2)C(=O)N[C@@H](CCCNC(=N)N)C(=O)N[C@@H](CCCNC(=N)N)C(=O)N[C@@H](C)C(=O)N[C@@H](CC(N)=O)C(N)=O)NC(=O)[C@H](C(C)C)NC(=O)[C@H](CCCNC(=N)N)NC1=O [N6NH2] | 85.9% | 58% | 12.9 µM | 32 µg/mL | 4 µg/mL | 4 µg/mL (≈ 1.62 µM) | 25.8 µM | 64 µg/mL | 6.46 µM | 16 µg/mL | 12.9 µM | 32 µg/mL | 6.46 µM | 16 µg/mL | 12.9 µM | 32 µg/mL | 80.52% | 72.94% | 71.89% | 77.86% | remaining at 6 h [1]: 41.9%; decrease of bacterial cells in the catheter [12]: 41.48%; effect on CD spectrum of genomic DNA [13]: do not affect the double helix of genomic DNA; effect on injury of liver, spleen, kidney and lung [16]: remarkably alleviated the injury of the liver and spleen; serum level of IL-10 [17]: 17.02 to 20.87 pg/mL; serum level of IL-1β [18]: 6.06 to 10.82 pg/mL; serum level of IL-6 [19]: 47.22 to 108.59 pg/mL; serum level of TNF-α [20]: 40.65 to 55.67 pg/mL
